Data taken from ChEMBL document CHEMBL1201862, “PubChem BioAssay data set” (2004).
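Values below derive from 48-hour exposures of cells grown in 96-well plates, with endpoints linearly interpolated between the two concentrations bracketing the appropriate inhibition level. At the GI50, growth is halved.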 Active and inactive are the calls of the source. No stated cut-off is given here; in the data, active = GI50 up to about 1.1 µM and inactive = higher.

Key:
Assay in all cases: NCI tumour cell line growth inhibition, 48 h
SK-MEL-2 = test system: SK-MEL-2
NCI-H23 = test system: NCI-H23
786-0 = test system: 786-0
M14 = test system: M14
SF-295 = test system: SF-295
HCC 2998 = test system: HCC 2998
MCF7 = test system: MCF7
DU-145 = test system: DU-145
HOP-92 = test system: HOP-92
NCI-H522 = test system: NCI-H522
UACC-257 = test system: UACC-257
SNB-19 = test system: SNB-19
MOLT-4 = test system: MOLT-4
KM12 = test system: KM12
NCI/ADR-RES = test system: NCI/ADR-RES
SN12C = test system: SN12C
EKVX = test system: EKVX
HCT-116 = test system: HCT-116
HOP-62 = test system: HOP-62
UACC-62 = test system: UACC-62

SMILES | GI50 (SK-MEL-2) | GI50 (NCI-H23) | GI50 (786-0) | GI50 (M14) | GI50 (SF-295) | GI50 (HCC 2998) | GI50 (MCF7) | GI50 (DU-145) | GI50 (HOP-92) | GI50 (NCI-H522) | GI50 (UACC-257) | GI50 (SNB-19) | GI50 (MOLT-4) | GI50 (KM12) | GI50 (NCI/ADR-RES) | GI50 (SN12C) | GI50 (EKVX) | GI50 (HCT-116) | GI50 (HOP-62) | GI50 (UACC-62)
c1ccc(CSP234N5CCN2CCN3CCN4CC5)c(CSP234N5CCN2CCN3CCN4CC5)c1 | > 100 µM (inactive) | > 100 µM (inactive) | > 100 µM (inactive) | 31.5 µM (inactive) | > 100 µM (inactive) | > 100 µM (inactive) | > 100 µM (inactive) | > 100 µM (inactive) | 46.2 µM (inactive) | 46.6 µM (inactive) | > 100 µM (inactive) | > 100 µM (inactive) | 65.2 µM (inactive) | > 100 µM (inactive) | > 100 µM (inactive) | 14.4 µM (inactive) | > 100 µM (inactive) | > 100 µM (inactive) | > 100 µM (inactive) | > 100 µM (inactive)
COc1ccc(NC(=S)N/N=C(\C)c2nc3cccnc3[nH]2)cc1 | 16.4 µM (inactive) | 10 µM (inactive) | 4.99 µM (inactive) | – | 3.13 µM (inactive) | 7.55 µM (inactive) | 3.41 µM (inactive) | 6.17 µM (inactive) | 4.4 µM (inactive) | 7.03 µM (inactive) | 3.52 µM (inactive) | 5.32 µM (inactive) | 3.41 µM (inactive) | 5.47 µM (inactive) | 6.62 µM (inactive) | 5.65 µM (inactive) | 2.32 µM (inactive) | 3.02 µM (inactive) | 7.5 µM (inactive) | 3.93 µM (inactive)
CC(C)(C)C(=O)C(C#N)C(=O)C(C)(C)C | > 100 µM (inactive) | > 100 µM (inactive) | > 100 µM (inactive) | > 100 µM (inactive) | > 100 µM (inactive) | > 100 µM (inactive) | > 100 µM (inactive) | > 100 µM (inactive) | > 100 µM (inactive) | > 100 µM (inactive) | > 100 µM (inactive) | > 100 µM (inactive) | > 100 µM (inactive) | > 100 µM (inactive) | > 100 µM (inactive) | > 100 µM (inactive) | > 100 µM (inactive) | > 100 µM (inactive) | > 100 µM (inactive) | –
N#Cc1sc2c(c1OC(=O)c1ccc(Cl)cc1Cl)c(=O)n(-c1ccccc1)c(=S)n2-c1ccccc1 | – | 18.8 µM (inactive) | 26 µM (inactive) | 18.2 µM (inactive) | 28.2 µM (inactive) | 29.2 µM (inactive) | 23 µM (inactive) | 36.1 µM (inactive) | 20.2 µM (inactive) | 1.12 µM (active) | 71.9 µM (inactive) | 19.8 µM (inactive) | 18.7 µM (inactive) | 24 µM (inactive) | 16.8 µM (inactive) | 21.8 µM (inactive) | 31.8 µM (inactive) | 13.4 µM (inactive) | 26.4 µM (inactive) | 18.4 µM (inactive)
OCC1OC(n2nc(-c3ccccc3)nc2-c2cnccn2)C(O)C1O (stereo unspecified) | – | > 100 µM (inactive) | > 100 µM (inactive) | > 100 µM (inactive) | > 100 µM (inactive) | > 100 µM (inactive) | > 100 µM (inactive) | > 100 µM (inactive) | > 100 µM (inactive) | > 100 µM (inactive) | > 100 µM (inactive) | > 100 µM (inactive) | > 100 µM (inactive) | > 100 µM (inactive) | > 100 µM (inactive) | > 100 µM (inactive) | > 100 µM (inactive) | > 100 µM (inactive) | > 100 µM (inactive) | > 100 µM (inactive)
C/C=C/C(=O)N1C(=O)OC[C@@H]1c1ccccc1 | 19.1 µM (inactive) | 17.2 µM (inactive) | 18.2 µM (inactive) | 19.4 µM (inactive) | 26.7 µM (inactive) | 23.1 µM (inactive) | 14.7 µM (inactive) | 20.5 µM (inactive) | 20.6 µM (inactive) | 20.4 µM (inactive) | 20.4 µM (inactive) | 20.4 µM (inactive) | 25.2 µM (inactive) | 14.7 µM (inactive) | 22.4 µM (inactive) | 20.5 µM (inactive) | 17.6 µM (inactive) | 19.9 µM (inactive) | 20.4 µM (inactive) | –
CC(C)(C)OC(=O)NCCNC(=O)CN(CC(=O)O)C1CCCCC1N(CC(=O)O)CC(=O)O (stereo unspecified) | > 100 µM (inactive) | > 100 µM (inactive) | > 100 µM (inactive) | > 100 µM (inactive) | > 100 µM (inactive) | > 100 µM (inactive) | > 100 µM (inactive) | > 100 µM (inactive) | > 100 µM (inactive) | > 100 µM (inactive) | > 100 µM (inactive) | > 100 µM (inactive) | > 100 µM (inactive) | > 100 µM (inactive) | > 100 µM (inactive) | > 100 µM (inactive) | – | > 100 µM (inactive) | > 100 µM (inactive) | > 100 µM (inactive)
Cc1cc(C)c(S(=O)(=O)N2CCCN(S(=O)(=O)c3c(C)cc(C)cc3C)OCCCON(S(=O)(=O)c3c(C)cc(C)cc3C)CCCN(S(=O)(=O)c3c(C)cc(C)cc3C)OCCCO2)c(C)c1 | > 100 µM (inactive) | > 100 µM (inactive) | > 100 µM (inactive) | > 100 µM (inactive) | > 100 µM (inactive) | > 100 µM (inactive) | > 100 µM (inactive) | > 100 µM (inactive) | 36.1 µM (inactive) | > 100 µM (inactive) | > 100 µM (inactive) | > 100 µM (inactive) | > 100 µM (inactive) | > 100 µM (inactive) | > 100 µM (inactive) | – | > 100 µM (inactive) | > 100 µM (inactive) | > 100 µM (inactive) | > 100 µM (inactive)
Cc1ccc(S(=O)(=O)Nn2c(S)c(C#N)c(-c3ccc(Cl)cc3)c(C#N)c2=O)cc1 | 56.8 µM (inactive) | 30 µM (inactive) | 32.6 µM (inactive) | 38.1 µM (inactive) | 32.9 µM (inactive) | 38.8 µM (inactive) | 44.6 µM (inactive) | 52.2 µM (inactive) | 59 µM (inactive) | 16.6 µM (inactive) | 45.3 µM (inactive) | 35.4 µM (inactive) | 24.7 µM (inactive) | 36.2 µM (inactive) | 27.5 µM (inactive) | 25.7 µM (inactive) | 32.9 µM (inactive) | 28.4 µM (inactive) | – | 27.7 µM (inactive)
O=C(/C=C/c1ccc(OCc2ccccc2)cc1)NCc1ccc(C(=O)NCCc2ccccc2)cc1 | > 100 µM (inactive) | > 100 µM (inactive) | > 100 µM (inactive) | > 100 µM (inactive) | > 100 µM (inactive) | > 100 µM (inactive) | > 100 µM (inactive) | > 100 µM (inactive) | > 100 µM (inactive) | > 100 µM (inactive) | > 100 µM (inactive) | > 100 µM (inactive) | – | > 100 µM (inactive) | > 100 µM (inactive) | > 100 µM (inactive) | 23.3 µM (inactive) | > 100 µM (inactive) | 89.1 µM (inactive) | > 100 µM (inactive)
